In the test the target is Avi-humanTEAD4 217-434 / Cy5 labeled humanYAP 60-100 (Homo sapiens (Human), UniProt Q15561). Kind of test: TR-FRET YAP-TEAD4 in-vitro biochemical assay. The test is classed as binding. As to conditions: 1 nM Avi-humanTEAD4 217-434, 20 nM Cy5-humanYAP 60-100, 1 h room temperature. How it is done: N-terminus Cy5 labeled humanYAP^60-100 (20 nM) was then added to this preparation. Compounds were dissolved at 10 mM in 100% DMSO and serial dilutions were made in 100% DMSO. The diluted compound solutions were incubated in white 384-well plates (Greiner Bio-One) for 1 h at room temperature with the above described mix. The final DMSO concentration present in the assay was 1%. […] The IC50 values were estimated by fitting the data by nonlinear fit regression (GraphPad Prism).
Sequence of Avi-humanTEAD4 217-434 / Cy5 labeled humanYAP 60-100 (Q15561 217-434): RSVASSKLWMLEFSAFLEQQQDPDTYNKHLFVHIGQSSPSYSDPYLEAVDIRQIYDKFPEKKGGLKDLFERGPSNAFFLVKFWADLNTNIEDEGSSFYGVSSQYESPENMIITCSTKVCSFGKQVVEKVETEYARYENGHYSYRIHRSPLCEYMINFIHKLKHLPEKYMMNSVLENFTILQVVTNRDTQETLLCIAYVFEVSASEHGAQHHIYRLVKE
On the technique in general: Time-resolved FRET reads energy transfer from a long-lived donor to a nearby acceptor.
The IC50 is the concentration at which inhibition is half-maximal. High values mean a need for much substance, low ones inhibition by little substance. Take `C[C@@H]1C[C@H](NC[C@@]2(c3ccccc3)Cc3c(cc(F)c(Cl)c3-c3c(C(N)=O)ccc(OCCO)c3F)O2)C[C@H](C)O1` (atropisomer, axis not shown) [Example 65a, 2-((2S,4S)-5-chloro-2-((((2R,4r,6S)-2,6-dimethyltetrahydro-2H-pyran-4-yl)amino)methyl)-6-fluoro-2-phenyl-2,3-dihydrobenzofuran-4-yl)-3-fluoro-4-(2-hydroxyethoxy)benzamide]: half-maximal inhibition (IC50) was put at 4 nM. The result for `C[C@@H]1C[C@@H](NC[C@@]2(c3ccccc3)Cc3c(cc(F)c(Cl)c3-c3c(C(N)=O)ccc(OCCO)c3F)O2)C[C@H](C)O1` (atropisomer, axis not shown) [Example 65b, 2-((2S,4S)-5-chloro-2-((((2R,4s,6S)-2,6-dimethyltetrahydro-2H-pyran-4-yl)amino)methyl)-6-fluoro-2-phenyl-2,3-dihydrobenzofuran-4-yl)-3-fluoro-4-(2-hydroxyethoxy)benzamide] reads 455 nM; that for `COc1ncc(C(N)=O)c(-c2c(Cl)c(F)cc3c2C[C@@](CN[C@H]2CC[C@](C)(O)CC2)(c2ccccc2)O3)c1F` (atropisomer, axis not shown) [Example 66a, 4-((2S,4S)-5-chloro-6-fluoro-2-((((trans)-4-hydroxy-4-methylcyclohexyl)amino)methyl)-2-phenyl-2,3-dihydrobenzofuran-4-yl)-5-fluoro-6-methoxynicotinamide], 2 nM; that for `COc1ncc(C(N)=O)c(-c2c(Cl)c(F)cc3c2C[C@@](CN[C@H]2CC[C@@](C)(O)CC2)(c2ccccc2)O3)c1F` (atropisomer, axis not shown) [Example 66b, 4-((2S,4S)-5-chloro-6-fluoro-2-((((cis)-4-hydroxy-4-methylcyclohexyl)amino)methyl)-2-phenyl-2,3-dihydrobenzofuran-4-yl)-5-fluoro-6-methoxynicotinamide], 2 nM. For the compound `C[C@]1(O)CC[C@@H](NC[C@@]2(c3ccccc3)Cc3c(cc(F)c(Cl)c3-c3c(C(N)=O)ccc(OC[C@H]4CCCO4)c3F)O2)CC1` (atropisomer, axis not shown) [Example 67a, 2-((2S,4S)-5-chloro-6-fluoro-2-((((cis)-4-hydroxy-4-methylcyclohexyl)amino)methyl)-2-phenyl-2,3-dihydrobenzofuran-4-yl)-3-fluoro-4-(((R)-tetrahydrofuran-2-yl)methoxy)benzamide], the midpoint of inhibition, the IC50, lay at 2 nM. The same measure for `C[C@]1(O)CC[C@H](NC[C@@]2(c3ccccc3)Cc3c(cc(F)c(Cl)c3-c3c(C(N)=O)ccc(OC[C@H]4CCCO4)c3F)O2)CC1` (atropisomer, axis not shown) [Example 67b, 2-((2S,4S)-5-chloro-6-fluoro-2-((((trans)-4-hydroxy-4-methylcyclohexyl)amino)methyl)-2-phenyl-2,3-dihydrobenzofuran-4-yl)-3-fluoro-4-(((R)-tetrahydrofuran-2-yl)methoxy)benzamide]: 3 nM; for `CCc1ccc(C(N)=O)c(-c2c(Cl)c(F)cc3c2C[C@@](CN[C@H]2CC[C@](C)(O)CC2)(c2ccccc2)O3)c1F` (atropisomer, axis not shown) [Example 68a, 2-((2S,4S)-5-chloro-6-fluoro-2-((((trans)-4-hydroxy-4-methylcyclohexyl)amino)methyl)-2-phenyl-2,3-dihydrobenzofuran-4-yl)-4-ethyl-3-fluorobenzamide]: 10 nM. The result for `CCc1ccc(C(N)=O)c(-c2c(Cl)c(F)cc3c2C[C@@](CN[C@H]2CC[C@@](C)(O)CC2)(c2ccccc2)O3)c1F` (atropisomer, axis not shown) [Example 68b, 2-((2S,4S)-5-chloro-6-fluoro-2-((((cis)-4-hydroxy-4-methylcyclohexyl)amino)methyl)-2-phenyl-2,3-dihydrobenzofuran-4-yl)-4-ethyl-3-fluorobenzamide] reads 12 nM; that for `CC(=O)N1CCC(NC[C@@]2(c3ccccc3)Cc3c(cc(F)c(Cl)c3-c3c(C(N)=O)ccc(OC(F)F)c3F)O2)CC1` (atropisomer, axis not shown) [Example 70, 2-((2S,4S)-2-(((1-acetylpiperidin-4-yl)amino)methyl)-5-chloro-6-fluoro-2-phenyl-2,3-dihydrobenzofuran-4-yl)-4-(difluoromethoxy)-3-fluorobenzamide], 20 nM. The result for `C[C@]1(O)CC[C@H](NC[C@@]2(c3ccccc3)Cc3c(cc(F)c(Cl)c3-c3c(C(N)=O)ccc(OCc4ncccn4)c3F)O2)CC1` (atropisomer, axis not shown) [Example 71a, 2-((2S,4S)-5-chloro-6-fluoro-2-((((trans)-4-hydroxy-4-methylcyclohexyl)amino)methyl)-2-phenyl-2,3-dihydrobenzofuran-4-yl)-3-fluoro-4-(pyrimidin-2-ylmethoxy)benzamide] reads 2 nM; that for `C[C@]1(O)CC[C@@H](NC[C@@]2(c3ccccc3)Cc3c(cc(F)c(Cl)c3-c3c(C(N)=O)ccc(OCc4ncccn4)c3F)O2)CC1` (atropisomer, axis not shown) [Example 71b, 2-((2S,4S)-5-chloro-6-fluoro-2-((((cis)-4-hydroxy-4-methylcyclohexyl)amino)methyl)-2-phenyl-2,3-dihydrobenzofuran-4-yl)-3-fluoro-4-(pyrimidin-2-ylmethoxy)benzamide], 1 nM; that for `CC(C)(C)NC[C@@]1(c2ccccc2)Cc2c(cc(F)c(Cl)c2-c2c(C(N)=O)ccc(OC(F)F)c2F)O1` (atropisomer, axis not shown) [Example 73, 2-((2S,4S)-2-((tert-butylamino)methyl)-5-chloro-6-fluoro-2-phenyl-2,3-dihydrobenzofuran-4-yl)-4-(difluoromethoxy)-3-fluorobenzamide], 14 nM.

In the case of `C[C@@H](CO)NC[C@@]1(c2ccccc2)Cc2c(cc(F)c(Cl)c2-c2c(C(N)=O)ccc(OC(F)F)c2F)O1` (atropisomer, axis not shown) [Example 75, 2-((2S,4S)-5-chloro-6-fluoro-2-((((S)-1-hydroxypropan-2-yl)amino)methyl)-2-phenyl-2,3-dihydrobenzofuran-4-yl)-4-(difluoromethoxy)-3-fluorobenzamide], inhibition was half-maximal at 38 nM (IC50). This IC50 lies about 2.7-fold higher than the previous one.

Take `CC1(NC[C@@]2(c3ccccc3)Cc3c(cc(F)c(Cl)c3-c3c(C(N)=O)ccc(OC(F)F)c3F)O2)CC1` (atropisomer, axis not shown) [Example 76, 2-((2S,4S)-5-chloro-6-fluoro-2-(((1-methylcyclopropyl)amino)methyl)-2-phenyl-2,3-dihydrobenzofuran-4-yl)-4-(difluoromethoxy)-3-fluorobenzamide]: the IC50 turned out to be 50 nM. The same measure for `COCCNC[C@@]1(c2ccccc2)Cc2c(cc(F)c(Cl)c2-c2c(C(N)=O)ccc(OC(F)F)c2F)O1` (atropisomer, axis not shown) [Example 77, 2-((2S,4S)-5-chloro-6-fluoro-2-(((2-methoxyethyl)amino)methyl)-2-phenyl-2,3-dihydrobenzofuran-4-yl)-4-(difluoromethoxy)-3-fluorobenzamide]: 71 nM; for `NC(=O)c1ccc(OC(F)F)c(F)c1-c1c(Cl)c(F)cc2c1C[C@@](CNCCN1CCCC1=O)(c1ccccc1)O2` (atropisomer, axis not shown) [Example 78, 2-((2S,4S)-5-chloro-6-fluoro-2-(((2-(2-oxopyrrolidin-1-yl)ethyl)amino)methyl)-2-phenyl-2,3-dihydrobenzofuran-4-yl)-4-(difluoromethoxy)-3-fluorobenzamide]: 160 nM; for `NC(=O)c1ccc(OC(F)F)c(F)c1-c1c(Cl)c(F)cc2c1C[C@@](CN[C@H]1CC[C@H](n3cnnn3)CC1)(c1ccccc1)O2` (atropisomer, axis not shown) [Example 79, 2-((2S,4S)-2-((((trans)-4-(1H-tetrazol-1-yl)cyclohexyl)amino)methyl)-5-chloro-6-fluoro-2-phenyl-2,3-dihydrobenzofuran-4-yl)-4-(difluoromethoxy)-3-fluorobenzamide]: 11 nM. `NC(=O)c1ccc(OC(F)F)c(F)c1-c1c(Cl)c(F)cc2c1C[C@@](CN[C@H]1C[C@H](COC(F)F)C1)(c1ccccc1)O2` (atropisomer, axis not shown) [Example 80, 2-((2S,4S)-5-chloro-2-(((trans-3-((difluoromethoxy)methyl)cyclobutyl)amino)methyl)-6-fluoro-2-phenyl-2,3-dihydrobenzofuran-4-yl)-4-(difluoromethoxy)-3-fluorobenzamide] had an IC50 of 14 nM. This IC50 and that of the compound before are within 1.5-fold of each other. The same measure for `NC(=O)c1ccc(OC(F)F)c(F)c1-c1c(Cl)c(F)cc2c1C[C@@](CN[C@H]1C[C@H](F)C1)(c1ccccc1)O2` (atropisomer, axis not shown) [Example 82, 2-((2S,4S)-5-chloro-6-fluoro-2-(((trans-3-fluorocyclobutyl)amino)methyl)-2-phenyl-2,3-dihydrobenzofuran-4-yl)-4-(difluoromethoxy)-3-fluorobenzamide]: 119 nM; for `C[C@]1(NC[C@@]2(c3ccccc3)Cc3c(cc(F)c(Cl)c3-c3c(C(N)=O)ccc(OC(F)F)c3F)O2)CC[C@H](O)CC1` (atropisomer, axis not shown) [Example 84, 2-((2S,4S)-5-chloro-6-fluoro-2-((((trans)-4-hydroxy-1-methylcyclohexyl)amino)methyl)-2-phenyl-2,3-dihydrobenzofuran-4-yl)-4-(difluoromethoxy)-3-fluorobenzamide]: 41 nM; for `NC[C@]1(c2ccccc2)Oc2ccc(Cl)c(-c3c(C(N)=O)ccc(OC(F)F)c3F)c2[C@@H]1O` (atropisomer, axis not shown) [Example 87, 2-((2S,3S,4S)-2-(aminomethyl)-5-chloro-3-hydroxy-2-phenyl-2,3-dihydrobenzofuran-4-yl)-4-(difluoromethoxy)-3-fluorobenzamide]: 30 nM.

For the origin of these results see patent US12083101B2, “Biaryl derivatives as YAP/TAZ-TEAD protein-protein interaction inhibitors” (Novartis AG, priority 2020, dated 2024).
